In article PMC12518693, “Potent Fluorescent Probe for Target‐Engagement Studies of Allosteric Pyruvate Kinase Modulators” (Angewandte Chemie (International Ed. in English), 2025):
“And” between values parts separate entries of the source, which are not always exact repeats. Equal values may be shown once.

Experiments:
HEK293 cells = experiment: Photostability in HEK293 cells under continuous 488 nm irradiation; type: cell-based; conditions: HEK293, 1 µM, 2 h, continuous 488 nm scanning 10 min
Description: Photostability of tracer IV was subsequently evaluated by treating HEK293 cells with the tracer (1 µM) for 2 h, followed by continuous scanning using 488 nm laser excitation for 10 min.
Figure S7. Photobleaching curve of compound IV (1 µM) in HEK293 cells under continuous laser irradiation. HEK293 cells were exposed to continuous excitation at 488 nm for 10 minutes using the same imaging settings as applied throughout this study. Integrated fluorescence intensity was recorded over time from an identical region of interest (ROI) across the time-lapse images to assess photostability.

PKM2 [1] = molecular target: T1, PKM2 (Homo sapiens, UniProt P14618); experiment: Native PAGE in-gel fluorescence, PKM2; type: binding; set-up: made in house
Description: To study the interaction of IV with PKLNluc and its oligomers, native PAGE was performed (Figure 4). Recombinant PKLNluc was incubated for 2 h with IV (0.15–10 µM) or DMSO and loaded onto gels. […] Colloidal blue staining and western blotting with anti‐PKL antibodies confirmed the predominance and identity of the bands (Figure S11a,d). […] PKM2 and PKL exist in equilibrium between oligomeric states, with PKM2 mainly dimeric when unbound.^[ [18] ^] As oligomerization regulates PK function,^[ [11], [54] ^] PKLNluc oligomerization was compared to PKLwt and PKM2 (Figure 4b,c). […] Colloidal blue and anti‐PKM2 blots confirmed PKM2 was mostly monomeric, explaining the lack of binding (Figure S11).
Given that FBP levels vary widely in cells,^[ [55], [56], [57] ^] and that it binds PKL with nanomolar affinity, ^[ [58] ^] IV binding to PKLwt was tested with and without FBP.
Recombinant PKLNLuc (4 x 950 ng) was incubated for 1 hour at ambient temperature with different concentrations of compound IV in a total volume of 60 µL Tris-HCl buffer pH 7.4 (50 mM Tris, 100 mM KCl, 10 mM MgCl2, 0.05% Tween 20). […]
A ChemiDoc imager (Bio-Rad, Alexa 488 filter) was used for fluorescence detection of compound IV bound to the proteins. […] The images of the in-gel fluorescence and luminescence detection were superimposed. […]

PKL [2] = molecular target: T2, PKL (Homo sapiens, UniProt P30613); experiment: Surface plasmon resonance, PKL
Description: The surface was washed with 10 mM NaOH, 1M NaCl followed by immobilization of protein before subsequent deactivation by 1 M ethanolamine. Immobilization levels were typically 12000-16000 RU. The reference spot was treated as described, omitting the injection of PKL. Compound concentration series was injected over the immobilized protein in increasing concentrations using multi cycle (MCK) or single cycle kinetics (SCK) in running buffer (10 mM HEPES, 150 mM NaCl, 0.05% Tween20, 0.3% DMSO, pH 7.4). A 1:1 Langmuir interaction model is fitted to the experimental traces, enabling determination of kon, koff and Kd.

PKM2 [3] = molecular target: T1, PKM2; experiment: Surface plasmon resonance, PKM2
PKL [4] = molecular target: T2, PKL; experiment: Recombinant PKL activity assay (Kinase-Glo MAX); type: biochemical; set-up: co-crystallisation of full-length PKL (including the B-domain); 8xHis (TEV-cleavable) (N, cleaved yes); made in house; host or cells: E. coli T7 Express (NEB), pExp-NHis plasmid
Description: The two isozymes were incubated with increasing concentrations of compounds before the addition of substrates PEP and adenosine diphosphate (ADP), and the reactions were monitored using a Kinase‐Glo MAX assay.
Figure S2. […] The reactions were terminated by the addition of Kinase Glo-MAX reagent after 10 min, and the luminescence from each reaction was quantified using a plate reader. The activity values are expressed as a percentage of PK activity of the DMSO control. The potencies were calculated by best fit of the Hill equation to the luminescence data.^[2] (A) PKL titrations. (B) PKM2 titrations. Error bars represent the ±SE of replicates (n = 3).
The reaction mixture contained 0.2 mM ADP, 0.1 mM PEP, 5 nM PKL, 1% DMSO, and test compounds at concentrations ranging from 0 to 1 mM across 12 titration points. Prior to substrate addition, PKL and test compounds were pre-incubated for 15 minutes.
After the reaction, 5 µL of Kinase-Glo Max reagent was added to each well. […] For each data set, luminescence from the DMSO control was set as 100% activity, and luminescence from the protein blank (no PKL) as 0% activity. Percentage activity (E%) was calculated using the equation: […]
Titration data was fitted to the Hill equation in Origin to determine EC₅₀ values.

T2 sequence (P30613 1-543 isoform P30613-2): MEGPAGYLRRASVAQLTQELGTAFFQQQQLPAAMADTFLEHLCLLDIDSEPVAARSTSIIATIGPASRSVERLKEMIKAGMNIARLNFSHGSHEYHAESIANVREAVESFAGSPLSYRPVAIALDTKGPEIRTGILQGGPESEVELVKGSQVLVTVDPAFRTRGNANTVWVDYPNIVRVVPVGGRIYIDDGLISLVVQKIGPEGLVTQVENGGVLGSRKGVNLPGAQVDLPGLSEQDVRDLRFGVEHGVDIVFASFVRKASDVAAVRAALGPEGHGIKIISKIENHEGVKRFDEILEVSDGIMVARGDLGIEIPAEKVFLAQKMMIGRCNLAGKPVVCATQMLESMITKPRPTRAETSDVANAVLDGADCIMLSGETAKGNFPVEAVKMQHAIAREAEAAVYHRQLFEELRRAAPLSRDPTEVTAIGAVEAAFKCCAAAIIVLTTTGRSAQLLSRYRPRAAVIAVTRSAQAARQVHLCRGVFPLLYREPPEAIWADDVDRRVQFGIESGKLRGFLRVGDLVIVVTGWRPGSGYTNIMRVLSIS
T1 sequence (P14618 whole entry): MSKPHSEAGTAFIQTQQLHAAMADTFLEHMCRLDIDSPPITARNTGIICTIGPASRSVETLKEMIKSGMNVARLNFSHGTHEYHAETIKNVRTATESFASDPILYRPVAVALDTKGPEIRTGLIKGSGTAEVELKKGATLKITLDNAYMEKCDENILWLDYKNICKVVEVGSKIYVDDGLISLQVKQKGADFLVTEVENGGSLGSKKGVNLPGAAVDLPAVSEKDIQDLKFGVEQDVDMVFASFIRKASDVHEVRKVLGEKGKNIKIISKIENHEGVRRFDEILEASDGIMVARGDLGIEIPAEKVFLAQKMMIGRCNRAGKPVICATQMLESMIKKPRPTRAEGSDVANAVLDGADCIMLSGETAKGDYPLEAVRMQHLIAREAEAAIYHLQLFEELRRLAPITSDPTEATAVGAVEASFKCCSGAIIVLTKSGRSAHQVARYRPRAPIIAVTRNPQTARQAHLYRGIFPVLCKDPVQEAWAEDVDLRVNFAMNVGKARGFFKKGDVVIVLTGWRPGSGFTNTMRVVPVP

decrease of fluorescence intensity (HEK293 cells): approximately 6% | in-gel fluorescence labeling of PKM2 (PKM2 [1]; IV 2.5 or 10 µM with FBP 10 µM, PKM2 tetrameric): no fluorescence | in-gel fluorescence labeling of PKM2 (PKM2 [1]; IV 2.5 or 10 µM, without FBP): no fluorescence was detected | Kd (PKL [2]; K D SPR (PKL), 20 °C, mean ± SE n=3): 37 ± 1 nM | Kd (PKL [2]; KD, independent replicates, single cycle kinetics, 1:1 Langmuir fit, Figure S14): 38.8 nM and 36.9 nM | PKL selectivity over PKM2 (PKL [2]; SPR K D PKM2 vs PKL): 37 fold | koff (PKL [2]; read-out: k off SPR (PKL)): 0.00617 s⁻¹ | kon (PKL [2]; read-out: k on SPR (PKL)): 168000 M⁻¹ s⁻¹ | Kd (PKM2 [3]): 1370 ± 218 nM | koff (PKM2 [3]; read-out: k off SPR (PKM2)): 0.0133 s⁻¹ | kon (PKM2 [3]; read-out: k on SPR (PKM2)): 9830 M⁻¹ s⁻¹ | EC50 (PKL [4]; recombinant PKL 10 nM, 15 min pre-incubation, PEP 0.1 mM, ADP 0.2 mM): 13 nM | PKL E max (PKL [4]; recombinant PKL, above 100% activation, below 100% inhibition): 169 % vehicle
Compound: CN(C)c1ccc(S(=O)(=O)c2ccc3c(=O)n(Cc4cc[nH]n4)ncc3c2)c2nonc12 [Compound IV, 2-((1H-Pyrazol-3-yl)methyl)-6-((7-(dimethylamino)benzo[c][1,2,5]oxadiazol-4-yl)sulfonyl)phthalazin-1(2H)-one]
